This experiment deals with T1, Arginase (ARG1 enzyme) (Homo sapiens, UniProt P05089).
T1 construct: made in house; host or cells: Escherichia coli
T1 sequence (P05089 1-322): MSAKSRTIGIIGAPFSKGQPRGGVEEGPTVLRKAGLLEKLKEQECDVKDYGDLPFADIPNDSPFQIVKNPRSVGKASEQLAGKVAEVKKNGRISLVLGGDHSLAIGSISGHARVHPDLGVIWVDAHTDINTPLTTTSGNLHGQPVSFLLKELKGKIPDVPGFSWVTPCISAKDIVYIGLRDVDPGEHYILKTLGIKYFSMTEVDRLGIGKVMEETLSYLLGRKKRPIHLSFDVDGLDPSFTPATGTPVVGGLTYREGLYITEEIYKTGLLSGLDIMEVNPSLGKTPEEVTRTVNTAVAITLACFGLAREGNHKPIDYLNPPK
The experiment is described as follows: Arginase Thioornithine Generating Assay (TOGA). The format is biochemical. The following applies: 1.88 nM arginase, thioarginine substrate, fluorescence readout. The protocol:
Arginase Thioornithine Generating Assay (TOGA)
Compounds were serially diluted in ten 3-fold steps in DMSO starting from 10 mM DMSO stocks. Compound dilutions or DMSO alone were then dispensed from the dilution plate into a Greiner black 384-well assay plate (catalog #781086) using an Echo 555 acoustic liquid handler (Labcyte).
Arginase protein was recombinantly expressed in Escherichia coli. Purified protein was then diluted in assay buffer (50 mM Tris pH 7.5, 50 mM NaCl, 1 mM manganese chloride, 0.05% bovine serum albumin to obtain a final Arginase concentration of 1.88 nM. Arginase solution (20 μL) or buffer alone (20 μL) were dispensed to wells of the assay plate using a BioRAPTR liquid dispenser (Beckman Coulter). Assay plates containing compound and ARG1 enzyme were incubated at room temperature for 30 minutes. Afterwards, 5 μL of 2.5 mM thioarginine (Cayman Chemicals) in assay buffer were added to each well of the assay plate using a BioRAPTR liquid dispenser. Plates were incubated at room temperature for 60 minutes and reactions were quenched by addition of 15 μL of […] 7-Diethylamine-3-(4-maleimidophenyl)-4-methylcoumarin (Sigma Chemical) in 70% ethanol. Plates were briefly shaken to mix and the fluorescence was measured in an Spectramax plate reader (Molecular Devices) with a 410 nm excitation wavelength and an 490 nm emission wavelength.
Potencies were calculated by […] to the four parameter logistic IC50 equation.

The text below walks through data of US12215116B2, “Arginase inhibitors and methods of use” (Merck Sharp & Dohme LLC, priority 2018, dated 2025).

Each structure is given as a SMILES string.

In turn, `NC[C@H]1C[C@H](CCCB(O)O)[C@H](C(=O)O)N1` [Example 60B, (2R,3S,5R)-5-(aminomethyl)-3-(3-boronopropyl)pyrrolidine-2-carboxylic acid] had a half-inhibitory concentration (IC50) of 1780 nM. On to `CC(C)(C)[C@H](N)C(=O)N[C@H]1CN[C@H](C(=O)O)[C@@H]1CCCB(O)O` [Example 38, (2S,3R,4R)-4-((S)-2-amino-3,3-dimethylbutanamido)-3-(3-boronopropyl)pyrrolidine-2-carboxylic acid], for which the 50% inhibitory concentration (IC50) came out at 0.818 nM. `C[C@@]1(C(=O)O)NCC[C@@H]1CCCB(O)O` [Example 16B, (3S)-3-[3-(dihydroxyboranyl)propyl]-2-methyl-D-proline]: 2260 nM corresponded to half-maximal inhibition (IC50). This IC50 is about 2800-fold higher than that of the compound before. `O=C(O)[C@H]1NCC[C@@]1(CO)CCCB(O)O` [Example 83, (2S,3S)-3-(3-boronopropyl)-3-(hydroxymethyl)pyrrolidine-2-carboxylic acid] yielded a 50% inhibitory concentration (IC50) of 19.3 nM. As for `O=C(O)[C@H]1NC[C@@H](O)[C@@H]1CCCB(O)O` (single isomer, unassigned) [Example 20A], 475 nM corresponded to half-maximal inhibition (IC50). Compared with the last compound, the IC50 is about 25-fold higher. The result for `O=C(O)[C@H]1NC[C@@H](O)[C@H]1CCCB(O)O` [Example 20B, (3S,4S) 3-[3-(dihydroxyboranyl)propyl]-4-hydroxy-L-proline] reads more than 10000 nM; that for `CN[C@H]1CN[C@H](C(=O)O)[C@@H]1CCCB(O)O` [Example 29, (2S,3R,4R)-3-(3-boronopropyl)-4-(methylamino)pyrrolidine-2-carboxylic acid], 20.1 nM; that for `NCCN[C@H]1CN[C@H](C(=O)O)[C@@H]1CCCB(O)O` [Example 31, (2S,3R,4R)-4-((2-aminoethyl)amino)-3-(3-boronopropyl)pyrrolidine-2-carboxylic acid], 6.69 nM. The result for `O=C(O)[C@@]1(CCN2CCC2)NCC[C@H]1CCCB(O)O` [Example 56] reads 20.8 nM; that for `C[C@@H]1C[C@@H](CCCB(O)O)[C@@H](C(=O)O)N1` [Example 64, (2S,3R,5R)-3-(3-boronopropyl)-5-methylpyrrolidine-2-carboxylic acid], 6.62 nM. The compound `O=C(O)[C@]1(CCN2CCCCC2)CC(CCB(O)O)CN1` (stereo partly drawn) [Example 19, 4-[2-(dihydroxyboranyl)ethyl]-2-[2-(piperidin-1-yl)ethyl]proline] gave a concentration for half-maximal inhibition (IC50) of 5370 nM.

`NC1CN[C@H](C(=O)O)C1CCCB(O)O` (single isomer, unassigned) [Example 33A] yielded a half-inhibitory concentration (IC50) of more than 10000 nM.

Turning to `O=C(O)[C@H]1NCCO[C@H]1CCCB(O)O` [Example 52, (2S,3S)-2-(3-boronopropyl)morpholine-3-carboxylic acid], the half-inhibitory concentration (IC50) worked out at 211 nM.

Regarding `O=C(O)C1CNCCC1CCCB(O)O` (stereo not drawn) [Example 6, 4-[3-(dihydroxyboranyl)propyl]piperidinyl-3-carboxylic acid], half-maximal inhibition (IC50) required 57500 nM. `O=C(O)[C@H]1NC[C@H](NCC(F)(F)F)[C@H]1CCCB(O)O` [Example 26, (2S,3R,4R)-3-(3-boronopropyl)-4-((2,2,2-trifluoroethyl)amino)pyrrolidine-2-carboxylic acid] yielded an IC50 of 120 nM.

Compound `O=C(O)[C@H]1NCCC[C@H]1CCCB(O)O` (single isomer, unassigned) [Example 1B] gave a half-maximal inhibitory concentration (IC50) of 377 nM.

On to `CC[C@H](C)[C@H](N)C(=O)N[C@H]1CN[C@H](C(=O)O)[C@@H]1CCCB(O)O` [Example 45, (2S,3R,4R)-4-((2S,3S)-2-amino-3-methylpentanamido)-3-(3-boronopropyl)pyrrolidine-2-carboxylic acid], for which the IC50 amounted to 2 nM.

The compound `O=C(O)[C@H]1NC[C@@H](O)[C@@]1(F)CCCB(O)O` [Example 92A, (2R,3R,4R)-3-(3-boronopropyl)-3-fluoro-4-hydroxypyrrolidine-2-carboxylic acid] registered a concentration for half-maximal inhibition (IC50) of more than 10000 nM.

Take `C[C@H]1N[C@H](C(=O)O)[C@](C)(CCCB(O)O)[C@@H]1O` [Example 74B]: the IC50 is more than 10000 nM. In the case of `NC[C@@]1(CCCB(O)O)CCN[C@@H]1C(=O)O` [Example 85, (2S,3R)-3-(aminomethyl)-3-(3-boronopropyl)pyrrolidine-2-carboxylic acid] it was 7.18 nM; in that of `O=C(O)[C@H]1NC[C@@]1(CO)CCCB(O)O` [Example 65, (2S,3S)-3-(3-boronopropyl)-3-(hydroxymethyl)azetidine-2-carboxylic acid], 13 nM; in that of `O=C(O)[C@@H]1CC(CCB(O)O)CN1` (stereo partly drawn) [Example 18, 4-[2-(dihydroxyboranyl)ethyl]proline], 8730 nM. The result for `O=C(O)[C@H]1NCC[C@@H]1CCCB(O)O` [Example 15B, (3S)-3-[3-(dihydroxyboranyl)propyl]-L-proline] reads 413 nM; that for `C[C@]1(CCCB(O)O)[C@@H](C(=O)O)NC[C@@H]1O` [Example 76, (2S,3S,4R)-3-(3-boronopropyl)-4-hydroxy-3-methylpyrrolidine-2-carboxylic acid], 17.7 nM; that for `O=C(O)C1CNCC1CCCB(O)O` (single isomer, unassigned) [Example 21D, 4-[3-(dihydroxyboranyl)propyl]pyrrolidine-3-carboxylic acid], 1520 nM. In the case of `O=C(O)[C@H]1NCCC1CCCB(O)O` (stereo partly drawn) [Example 9, 3-[3-(dihydroxyboranyl)propyl]-L-proline] it was 113 nM.

In the case of `O=C(O)[C@H]1NC[C@H](O)[C@@H]1CCCB(O)O` [Example 82, (2S,3R,4R)-3-(3-boronopropyl)-4-hydroxypyrrolidine-2-carboxylic acid], the IC50 is more than 10000 nM.

Consider `O=C(O)[C@H]1NCC[C@H]1CCCB(O)O` (single isomer, unassigned) [Example 9A], for which the IC50 was 18 nM. In the case of `NC[C@@]1(CCCB(O)O)CN[C@@H]1C(=O)O` [Example 67, (2S,3S)-3-(aminomethyl)-3-(3-boronopropyl)azetidine-2-carboxylic acid] it was 8 nM. In the case of `CCN(CC)[C@H]1CN[C@H](C(=O)O)[C@@H]1CCCB(O)O` [Example 28, (2S,3S,4R)-3-(3-boronopropyl)-4-(diethylamino)pyrrolidine-2-carboxylic acid] it was 3290 nM; in that of `O=C(O)[C@H]1N[C@H](CO)C[C@H]1CCCB(O)O` [Example 63, (2S,3R,5S)-3-(3-boronopropyl)-5-(hydroxymethyl)pyrrolidine-2-carboxylic acid], 7.71 nM. In the case of `O=C(O)[C@H]1NCC(CO)[C@H]1CCCB(O)O` (stereo partly drawn) [Example 91, (2S,3R)-3-(3-boronopropyl)-4-(hydroxymethyl)pyrrolidine-2-carboxylic acid] it was 20 nM.

`O=C(O)[C@@]1(CCO)NCC[C@H]1CCCB(O)O` [Example 53, (2S,3R)-3-(3-boronopropyl)-2-(2-hydroxyethyl)pyrrolidine-2-carboxylic acid] registered a half-inhibitory concentration (IC50) of 1480 nM. In the case of `O=C(O)C1NCC[C@@H]1CCCB(O)O` (single isomer, unassigned) [Example 9B], half-maximal inhibition (IC50) required 8040 nM. The result for `CN(C)C[C@@H]1C[C@@H](CCCB(O)O)[C@@H](C(=O)O)N1` [Example 61, (2S,3R,5S)-3-(3-boronopropyl)-5-((dimethylamino)methyl)pyrrolidine-2-carboxylic acid] reads 439 nM; that for `CN(C)C[C@]1(C(=O)O)NCC[C@H]1CCCB(O)O` [Example 58, (2R,3R)-3-(3-boronopropyl)-2-((dimethylamino)methyl)pyrrolidine-2-carboxylic acid], more than 10000 nM; that for `O=C(N[C@H]1CN[C@H](C(=O)O)[C@@H]1CCCB(O)O)[C@@H]1CCCN1` [Example 49, (2S,3R,4R)-3-(3-boronopropyl)-4-((S)-pyrrolidine-2-carboxamido)pyrrolidine-2-carboxylic acid], 13 nM. The result for `O=C(O)C1NCCCC1OCCB(O)O` (stereo not drawn) [Example 3, 3-[2-(dihydroxyboranyl)ethoxy]piperidinyl-2-carboxylic acid] reads more than 10000 nM; that for `NCC1(C(=O)O)CCC(CCB(O)O)C1` (mixture of isomers) [Example 95, 1-(aminomethyl)-3-(2-boronoethyl)cyclopentane-1-carboxylic acid], more than 10000 nM; that for `CC1(C)N[C@H](C(=O)O)[C@](C)(CCCB(O)O)[C@@H]1O` [Example 75], more than 10000 nM. Turning to `CNC[C@@H]1C[C@@H](CCCB(O)O)[C@@H](C(=O)O)N1` [Example 62, (2S,3R,5S)-3-(3-boronopropyl)-5-((methylamino)methyl)pyrrolidine-2-carboxylic acid], it took 34.9 nM to reach half-maximal inhibition (IC50). As to `CCN[C@H]1CN[C@H](C(=O)O)[C@@H]1CCCB(O)O` [Example 30, (2S,3R,4R)-3-(3-boronopropyl)-4-(ethylamino)pyrrolidine-2-carboxylic acid], inhibition was half-maximal at 84.5 nM (IC50).

The term IC50 denotes the concentration that gives 50% inhibition. A lower IC50 goes with higher potency.
